Legend:
Type in all cases: biochemical
[1] = biological target: T1, TNK1 (Homo sapiens, UniProt Q13470); experiment: Kinome profiling TNK1; conditions: read-out: Inhibitory activity TNK1; for inhibition at 0.1 µM: 100 nM
T1 sequence (Q13470 1-666): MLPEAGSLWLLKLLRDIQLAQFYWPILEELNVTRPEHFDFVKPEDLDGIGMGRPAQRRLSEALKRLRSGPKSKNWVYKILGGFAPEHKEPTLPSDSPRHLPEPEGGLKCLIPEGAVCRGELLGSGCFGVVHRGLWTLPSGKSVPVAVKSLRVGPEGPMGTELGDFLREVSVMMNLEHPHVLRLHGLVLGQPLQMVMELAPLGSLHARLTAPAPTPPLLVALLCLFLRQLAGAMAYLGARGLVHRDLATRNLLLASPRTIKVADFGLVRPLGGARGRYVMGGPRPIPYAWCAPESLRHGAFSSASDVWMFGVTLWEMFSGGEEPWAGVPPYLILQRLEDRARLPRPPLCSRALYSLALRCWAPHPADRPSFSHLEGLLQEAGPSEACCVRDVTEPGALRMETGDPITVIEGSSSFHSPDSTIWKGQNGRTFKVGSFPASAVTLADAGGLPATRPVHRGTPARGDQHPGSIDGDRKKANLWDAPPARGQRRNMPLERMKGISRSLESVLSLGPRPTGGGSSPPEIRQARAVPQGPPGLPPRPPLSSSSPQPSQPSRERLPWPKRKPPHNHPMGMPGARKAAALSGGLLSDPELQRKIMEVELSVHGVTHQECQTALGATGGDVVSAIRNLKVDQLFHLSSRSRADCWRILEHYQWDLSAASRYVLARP
Experimental: (§1) . The kinome-wide selectivity was determined following the methods previously reported by Mohedas et al., ACS Chem Biol 2013, 8, 1291-1302 and Sanvitale et al., PLoS One 2013, 8, e62721.

[2] = biological target: FER (Homo sapiens, UniProt P16591); experiment: Kinome profiling FER; conditions: read-out: Inhibitory activity FER; for inhibition at 0.1 µM: 100 nM
Chain of FER (P16591 whole entry): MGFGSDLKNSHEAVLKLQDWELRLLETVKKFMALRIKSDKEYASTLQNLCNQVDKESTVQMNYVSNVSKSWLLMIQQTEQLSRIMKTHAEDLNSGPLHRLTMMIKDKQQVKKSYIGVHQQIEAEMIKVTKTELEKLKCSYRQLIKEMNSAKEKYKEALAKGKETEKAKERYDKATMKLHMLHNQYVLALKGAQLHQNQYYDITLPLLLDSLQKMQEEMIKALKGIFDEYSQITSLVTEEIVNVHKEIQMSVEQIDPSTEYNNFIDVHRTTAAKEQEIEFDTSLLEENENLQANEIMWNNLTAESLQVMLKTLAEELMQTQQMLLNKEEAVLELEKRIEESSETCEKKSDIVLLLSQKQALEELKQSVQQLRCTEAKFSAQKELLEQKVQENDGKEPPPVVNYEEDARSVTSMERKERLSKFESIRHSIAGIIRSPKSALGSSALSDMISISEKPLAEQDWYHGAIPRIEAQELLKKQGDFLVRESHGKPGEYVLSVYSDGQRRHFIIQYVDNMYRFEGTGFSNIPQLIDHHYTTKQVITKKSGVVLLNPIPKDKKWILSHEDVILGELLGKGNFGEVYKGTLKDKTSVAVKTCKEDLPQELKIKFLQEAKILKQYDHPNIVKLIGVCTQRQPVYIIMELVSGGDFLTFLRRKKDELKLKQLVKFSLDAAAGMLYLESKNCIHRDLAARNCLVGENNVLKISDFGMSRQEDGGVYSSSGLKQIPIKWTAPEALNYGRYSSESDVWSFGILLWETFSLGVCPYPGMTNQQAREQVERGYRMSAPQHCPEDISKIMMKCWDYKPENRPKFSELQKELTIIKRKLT
Experimental: as §1

[3] = biological target: T2, SGK2 (Homo sapiens, UniProt Q9HBY8); experiment: Kinome profiling SGK2; conditions: read-out: Inhibitory activity SGK2; for inhibition at 0.1 µM: 100 nM
T2 sequence (Q9HBY8 1-367): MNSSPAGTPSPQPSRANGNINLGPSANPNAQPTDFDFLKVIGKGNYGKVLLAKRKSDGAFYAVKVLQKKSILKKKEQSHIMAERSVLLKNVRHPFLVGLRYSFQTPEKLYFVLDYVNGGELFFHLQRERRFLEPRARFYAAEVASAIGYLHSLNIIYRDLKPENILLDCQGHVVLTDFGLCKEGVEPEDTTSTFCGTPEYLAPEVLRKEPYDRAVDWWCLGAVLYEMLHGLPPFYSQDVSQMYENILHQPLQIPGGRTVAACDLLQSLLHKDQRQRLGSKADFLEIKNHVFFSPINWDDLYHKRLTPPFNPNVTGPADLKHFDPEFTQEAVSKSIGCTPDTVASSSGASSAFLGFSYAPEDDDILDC
Experimental: as §1

[4] = biological target: AKT1 (Homo sapiens, UniProt P31749); experiment: Kinome profiling AKT1; conditions: read-out: Inhibitory activity AKT1; for inhibition at 0.1 µM: 100 nM
Chain of AKT1 (P31749 whole entry): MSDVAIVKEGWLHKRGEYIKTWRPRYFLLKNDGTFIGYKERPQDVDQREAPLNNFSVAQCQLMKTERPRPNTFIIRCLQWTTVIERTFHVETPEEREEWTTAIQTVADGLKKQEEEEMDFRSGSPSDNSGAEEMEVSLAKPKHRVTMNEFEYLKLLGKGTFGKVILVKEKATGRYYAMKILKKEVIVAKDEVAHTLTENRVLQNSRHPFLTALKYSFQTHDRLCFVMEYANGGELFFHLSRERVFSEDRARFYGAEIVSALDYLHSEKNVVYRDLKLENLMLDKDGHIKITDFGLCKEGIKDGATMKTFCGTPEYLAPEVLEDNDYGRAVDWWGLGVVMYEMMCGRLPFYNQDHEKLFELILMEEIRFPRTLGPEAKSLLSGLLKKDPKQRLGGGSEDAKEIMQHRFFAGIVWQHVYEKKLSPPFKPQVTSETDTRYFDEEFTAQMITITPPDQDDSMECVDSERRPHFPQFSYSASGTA
Experimental: as §1

[5] = biological target: SPHK1 (Homo sapiens, UniProt Q9NYA1); experiment: Kinome profiling SPHK1; conditions: read-out: Inhibitory activity SPHK1; for inhibition at 0.1 µM: 100 nM
Chain of SPHK1 (Q9NYA1 whole entry): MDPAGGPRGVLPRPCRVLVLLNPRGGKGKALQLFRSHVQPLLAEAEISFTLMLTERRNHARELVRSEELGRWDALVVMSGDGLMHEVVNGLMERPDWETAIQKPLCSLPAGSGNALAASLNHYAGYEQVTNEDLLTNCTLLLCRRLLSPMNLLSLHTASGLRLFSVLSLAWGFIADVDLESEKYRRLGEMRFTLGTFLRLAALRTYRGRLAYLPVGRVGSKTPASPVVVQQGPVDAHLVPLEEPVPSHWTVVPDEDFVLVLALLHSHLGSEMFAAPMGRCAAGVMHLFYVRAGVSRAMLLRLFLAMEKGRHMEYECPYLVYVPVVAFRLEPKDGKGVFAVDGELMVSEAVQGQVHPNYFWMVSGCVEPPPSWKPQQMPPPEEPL
Experimental: as §1

[6] = biological target: T3, SPHK2 (Homo sapiens, UniProt Q9NRA0); experiment: Kinome profiling SPHK2; conditions: read-out: Inhibitory activity SPHK2; for inhibition at 0.1 µM: 100 nM
T3 sequence (Q9NRA0 1-654): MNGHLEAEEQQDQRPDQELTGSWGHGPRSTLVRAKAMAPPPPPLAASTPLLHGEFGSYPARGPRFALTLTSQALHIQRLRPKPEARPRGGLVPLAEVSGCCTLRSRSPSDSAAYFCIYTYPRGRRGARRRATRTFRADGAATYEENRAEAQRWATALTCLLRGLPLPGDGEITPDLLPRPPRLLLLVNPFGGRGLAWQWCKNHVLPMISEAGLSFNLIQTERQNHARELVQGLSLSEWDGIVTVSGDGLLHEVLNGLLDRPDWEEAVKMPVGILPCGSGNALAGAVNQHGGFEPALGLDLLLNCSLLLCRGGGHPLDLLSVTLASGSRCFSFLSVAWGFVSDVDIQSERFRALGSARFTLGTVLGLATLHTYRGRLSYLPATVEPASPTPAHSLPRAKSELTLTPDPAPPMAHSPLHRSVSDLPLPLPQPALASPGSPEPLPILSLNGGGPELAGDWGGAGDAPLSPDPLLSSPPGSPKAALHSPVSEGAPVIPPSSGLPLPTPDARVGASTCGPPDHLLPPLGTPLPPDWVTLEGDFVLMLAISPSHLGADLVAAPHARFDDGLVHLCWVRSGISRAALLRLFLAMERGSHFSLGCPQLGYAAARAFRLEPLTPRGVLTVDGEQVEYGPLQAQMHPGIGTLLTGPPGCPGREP
Experimental: as §1

[7] = biological target: MRCK-β (Homo sapiens, UniProt Q9Y5S2); experiment: Kinome profiling MRCK-β; conditions: read-out: Inhibitory activity MRCK-β; for inhibition at 0.1 µM: 100 nM
Chain of MRCK-β (Q9Y5S2 whole entry): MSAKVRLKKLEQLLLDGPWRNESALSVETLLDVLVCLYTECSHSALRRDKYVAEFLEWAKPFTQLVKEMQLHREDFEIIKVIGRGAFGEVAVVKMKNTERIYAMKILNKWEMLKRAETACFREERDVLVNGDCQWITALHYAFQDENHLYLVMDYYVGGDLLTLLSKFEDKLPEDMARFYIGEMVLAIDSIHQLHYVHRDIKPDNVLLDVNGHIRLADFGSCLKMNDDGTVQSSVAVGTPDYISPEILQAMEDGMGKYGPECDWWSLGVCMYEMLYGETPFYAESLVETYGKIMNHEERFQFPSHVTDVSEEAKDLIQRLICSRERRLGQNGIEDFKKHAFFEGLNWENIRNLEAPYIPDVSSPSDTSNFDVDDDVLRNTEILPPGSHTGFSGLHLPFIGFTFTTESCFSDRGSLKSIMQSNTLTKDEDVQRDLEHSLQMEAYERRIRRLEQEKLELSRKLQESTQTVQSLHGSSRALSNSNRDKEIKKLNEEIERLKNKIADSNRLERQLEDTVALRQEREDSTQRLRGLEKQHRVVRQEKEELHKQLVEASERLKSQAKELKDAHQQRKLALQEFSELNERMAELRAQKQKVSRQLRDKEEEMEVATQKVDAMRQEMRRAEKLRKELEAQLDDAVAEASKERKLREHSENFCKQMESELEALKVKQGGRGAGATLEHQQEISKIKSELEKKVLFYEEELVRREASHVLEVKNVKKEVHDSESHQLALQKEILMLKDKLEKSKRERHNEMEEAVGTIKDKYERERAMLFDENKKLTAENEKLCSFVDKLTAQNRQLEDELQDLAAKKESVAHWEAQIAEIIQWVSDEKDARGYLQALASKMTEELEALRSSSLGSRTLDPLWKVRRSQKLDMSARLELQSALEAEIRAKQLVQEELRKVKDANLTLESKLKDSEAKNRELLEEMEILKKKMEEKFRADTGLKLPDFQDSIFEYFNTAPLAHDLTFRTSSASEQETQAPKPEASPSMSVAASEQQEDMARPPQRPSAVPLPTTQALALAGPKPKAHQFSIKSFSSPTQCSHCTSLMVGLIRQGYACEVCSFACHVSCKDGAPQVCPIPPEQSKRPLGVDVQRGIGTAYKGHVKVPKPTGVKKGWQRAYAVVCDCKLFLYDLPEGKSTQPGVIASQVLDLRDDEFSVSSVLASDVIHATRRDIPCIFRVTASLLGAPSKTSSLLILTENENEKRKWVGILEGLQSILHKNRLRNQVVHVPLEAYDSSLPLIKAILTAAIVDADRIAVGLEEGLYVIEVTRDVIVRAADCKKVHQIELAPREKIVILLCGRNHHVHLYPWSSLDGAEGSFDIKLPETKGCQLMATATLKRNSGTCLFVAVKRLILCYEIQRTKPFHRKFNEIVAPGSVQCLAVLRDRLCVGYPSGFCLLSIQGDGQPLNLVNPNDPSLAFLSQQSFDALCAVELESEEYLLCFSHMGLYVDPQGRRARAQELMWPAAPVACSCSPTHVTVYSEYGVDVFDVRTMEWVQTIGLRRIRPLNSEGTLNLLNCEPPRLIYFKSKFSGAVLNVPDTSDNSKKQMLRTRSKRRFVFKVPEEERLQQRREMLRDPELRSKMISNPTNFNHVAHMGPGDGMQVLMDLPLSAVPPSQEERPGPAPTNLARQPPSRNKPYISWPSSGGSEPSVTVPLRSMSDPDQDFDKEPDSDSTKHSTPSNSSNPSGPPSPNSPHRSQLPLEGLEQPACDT
Experimental: as §1

[8] = biological target: CHEK2 (Homo sapiens, UniProt O96017); experiment: Kinome profiling CHEK2; conditions: read-out: Inhibitory activity CHEK2; for inhibition at 0.1 µM: 100 nM
Chain of CHEK2 (O96017 whole entry): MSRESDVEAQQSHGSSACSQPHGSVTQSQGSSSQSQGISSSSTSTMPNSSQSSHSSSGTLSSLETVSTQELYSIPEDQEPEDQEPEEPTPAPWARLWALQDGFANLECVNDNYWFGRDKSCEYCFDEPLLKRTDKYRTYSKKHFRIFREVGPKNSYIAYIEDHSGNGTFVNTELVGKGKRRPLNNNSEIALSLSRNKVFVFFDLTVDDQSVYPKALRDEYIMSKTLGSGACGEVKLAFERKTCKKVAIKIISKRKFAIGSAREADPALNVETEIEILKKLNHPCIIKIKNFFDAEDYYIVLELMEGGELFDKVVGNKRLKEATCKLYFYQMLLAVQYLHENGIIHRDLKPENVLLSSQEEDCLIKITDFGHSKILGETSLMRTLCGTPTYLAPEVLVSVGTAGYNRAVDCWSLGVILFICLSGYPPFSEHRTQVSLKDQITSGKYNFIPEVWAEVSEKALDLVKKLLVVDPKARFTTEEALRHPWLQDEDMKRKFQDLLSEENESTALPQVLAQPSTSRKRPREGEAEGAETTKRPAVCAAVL
Experimental: as §1

[9] = biological target: KIT (Homo sapiens, UniProt P10721); experiment: Kinome profiling KIT; conditions: read-out: Inhibitory activity KIT; for inhibition at 0.1 µM: 100 nM
Chain of KIT (P10721 26-976): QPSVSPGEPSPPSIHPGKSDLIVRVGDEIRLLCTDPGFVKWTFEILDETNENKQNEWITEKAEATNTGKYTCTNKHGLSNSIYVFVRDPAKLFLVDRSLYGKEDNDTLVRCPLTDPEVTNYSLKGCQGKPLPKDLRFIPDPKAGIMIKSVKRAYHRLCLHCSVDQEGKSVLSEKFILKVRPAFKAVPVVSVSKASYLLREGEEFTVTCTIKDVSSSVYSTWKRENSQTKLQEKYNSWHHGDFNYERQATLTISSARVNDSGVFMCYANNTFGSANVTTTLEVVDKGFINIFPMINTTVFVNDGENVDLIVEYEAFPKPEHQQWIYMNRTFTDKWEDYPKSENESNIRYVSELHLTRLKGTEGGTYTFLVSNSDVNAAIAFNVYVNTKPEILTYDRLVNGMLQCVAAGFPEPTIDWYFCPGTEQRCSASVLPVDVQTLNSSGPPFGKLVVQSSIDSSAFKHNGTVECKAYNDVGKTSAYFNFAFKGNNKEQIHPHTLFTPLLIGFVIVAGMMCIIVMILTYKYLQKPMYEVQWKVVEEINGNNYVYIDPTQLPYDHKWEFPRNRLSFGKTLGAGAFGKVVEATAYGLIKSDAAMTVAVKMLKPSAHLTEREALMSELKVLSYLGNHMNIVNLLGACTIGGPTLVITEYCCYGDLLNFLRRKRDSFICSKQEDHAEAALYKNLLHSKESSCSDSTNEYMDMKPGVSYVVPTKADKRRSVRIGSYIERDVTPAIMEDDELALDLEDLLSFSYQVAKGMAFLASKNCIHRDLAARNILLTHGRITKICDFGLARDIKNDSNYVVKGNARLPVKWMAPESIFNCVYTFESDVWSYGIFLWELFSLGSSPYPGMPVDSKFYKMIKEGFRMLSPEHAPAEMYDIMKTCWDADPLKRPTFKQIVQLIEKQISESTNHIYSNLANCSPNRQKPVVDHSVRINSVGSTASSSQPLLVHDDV
Experimental: as §1

Row | SMILES | inhibition at 0.1 µM [1] [%] | inhibition at 1 µM [1] [%] | inhibition at 0.1 µM [2] [%] | inhibition at 1 µM [2] [%] | inhibition at 0.1 µM [3] [%] | inhibition at 1 µM [3] [%] | inhibition at 0.1 µM [4] [%] | inhibition at 1 µM [4] [%] | inhibition at 0.1 µM [5] [%] | inhibition at 1 µM [5] [%] | inhibition at 0.1 µM [6] [%] | inhibition at 1 µM [6] [%] | inhibition at 0.1 µM [7] [%] | inhibition at 1 µM [7] [%] | inhibition at 0.1 µM [8] [%] | inhibition at 1 µM [8] [%] | inhibition at 0.1 µM [9] [%] | inhibition at 1 µM [9] [%]
1 | COc1cc(-c2cc(-c3ccc(N4CCNCC4)cc3)cnc2C)cc(OC)c1OC [Compound 10, 1-(4-(6-methyl-5-(3,4,5-trimethoxyphenyl)pyridin-3-yl)phenyl)piperazine] | 5 | 2 | 3 | 3 | 1 | -1 | 0 | 0 | 0 | 0 | 13 | 5 | 0 | 0 | 1 | 8 | 5 | 12
2 | COc1cc(-c2cc(-c3ccc(N4CCNCC4)cc3)cnc2N)cc(OC)c1OC [Compound 15, 5-(4-(piperazin-1-yl)phenyl)-3-(3,4,5-trimethoxyphenyl)pyridin-2-amine] | 2 | 16 | 0 | 6 | 2 | 3 | 0 | 2 | 2 | -12 | 6 | -6 | 3 | 22 | 2 | 7 | 5 | 22
